The numbers were not newly measured in PMC8537988, “Re-Use of Caco-2 Monolayers in Permeability Assays—Validation Regarding Cell Monolayer Integrity” (Pharmaceutics, 2021), which cites them from elsewhere.

One series concerns Caco-2 monolayers. Details: method as in PMID 34247356. Particulars: day 23 post-seeding, 90 min sampling interval; cited from earlier work.
Series [1] concerns transporters in the membrane (influx or efflux). Details: method as in PMID 9213361. The following applies: cited from earlier work.

In the case of “Lucifer yellow CH di-potassium salt [LY]”, the “amount of LY that permeates through Caco-2 monolayers” value in the series with Caco-2 monolayers is on record as 0.27%. The “substrate of transporters in the membrane (influx or efflux)” value in series [1] is “not a substrate of transporters in the membrane (influx or efflux)”.
